Reference: patent US10689381B2 (priority 2017, dated 2020)
Where two headings read alike, the source gives them in different places.

Experiments:
HCT116 = experiment: cells; type: cell-based, human
How it was run: (§1)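 Compound exposure ran 72 h at six concentrations (0–1000 nM or 0–10000 nM, duplicate) on cells plated at 30,000 cells/mL in 10% FBS DMEM. A closing 37 °C incubation took 15 min (HCT116) or 5 min (L1210).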

L1210 = experiment: cells; type: cell-based, mouse
How it was run: as §1

Tubulin = settings: for percent (%) displacement of tubulin-bound BODIPY-vinblastine: FIG. 2, competitive ligand 18 μM; for % displacement: Table 9, displacement of tubulin bound BODIPY-vinblastine
Description: Control studies were performed with BODIPY-VBL in the absence of a competitive ligand (control 1, maximum FI enhancement) and in the absence of tubulin (control 2, no FI enhancement). Percent (%) BODIPY-VBL displacement was calculated by the formula: (control 1 FI−experiment FI)/(Control 1 FI−Control 2 FI)×100%. Reported values are the average of 5 measurements±SD.

A549-T24 = experiment: cells; type: cell-based, human
Source text: (§2) 2001, 98:11737; Kavallaris et al., Brit. J. Cancer. 1999, 80:1020; and Kavallaris et al., J. Clin. Invest. 1997, 100:1282]. As a result, the comparison of cell growth inhibition of candidate drugs against A549 vs A549-T24 has been used to characterize potential resistance due to increased expression of class III β-tubulin [Goncalves et al., Proc. Natl. Acad. Sci. USA. 2001, 98:11737; Kavallaris et al., Brit. J. Cancer. 1999, 80:1020; and Kavallaris et al., J. Clin. Invest. 1997, 100:1282].

A549 = experiment: cells; type: cell-based, human
Source text: as §2

HCT116/VM46 = experiment: cells; type: cell-based, human
Description: Compounds were tested for their cell growth inhibition of L1210 (ATCC no. CCL-219, mouse lymphocytic leukemia), HCT116 (ATCC no. CCL-247, human colorectal carcinoma), and HCT116/VM46 (a vinblastine-resistant strain of HCT116) cells in culture. A population of cells (>1×10^6 cells/mL as determined with a hemocytometer) was diluted with Dulbecco's Modified Eagle Medium (DMEM, Gibco) containing 10% fetal bovine serum (FBS, Gibco) to give a final concentration of 30,000 cells/mL. To each well of a 96-well plate (Corning® Costar®) was added 100 μL of the cell media solution with a multichannel pipet. The cultures were incubated at 37° C. in an atmosphere of 5% CO2 and 95% humidified air for 24 hours.
The test compounds were then added to the plate as follows: test compounds were diluted in DMSO to a concentration of 1 mM. 10-Fold serial dilutions in DMSO were next performed on a separate 96-well plate. Fresh culture media (100 μL) was added to each well of cells resulting in 200 μL of medium per well followed by 2 μL of each test agent. Compounds were tested in duplicate (n=2-8 times) at six concentrations between 0-1000 nM or 0-10000 nM. Following the addition of compound, cultures were incubated for an additional 72 hours.
The plates were incubated at 37° C. for 5 minutes (L1210) or 15 min (HCT116 and HCT116/VM46). After the given incubation time, 50 μL of 0.1 N NaOH was added to each well and the absorption at 405 nm was determined using a 96 well plate reader. […]

[1] = Table 9, read-out: IC50 (nM, HCT116)
[2] = Table 10, read-out: IC50 (nM), HCT116
[3] = table b183, value in parentheses

| SMILES | IC50 (HCT116; Table 2, read-out: IC50 HCT116) [nM] | IC50 (L1210; Table 2) [nM] | IC50 (HCT116; read-out: IC50 HCT116) [nM] | IC50 (L1210) [nM] | IC50 (A549-T24) [nM] | IC50 (A549; read-out: IC50 A549) [nM] | also measured |
| --- | --- | --- | --- | --- | --- | --- | --- |
| CC[C@]1(NC(=O)c2ccc(C#N)cc2)C[C@H]2CN(CCc3c([nH]c4ccccc34)[C@@](C(=O)OC)(c3cc4c(cc3OC)N(C)[C@H]3[C@@](O)(C(=O)OC)[C@H](OC(C)=O)[C@]5(CC)C=CCN6CC[C@]43[C@@H]65)C2)C1 [Compound 54] | 3.1 | 4.4 | – | – | – | – | percent (%) displacement of tubulin-bound BODIPY-vinblastine (Tubulin): 56±5% |
| CC[C@]1(NC(=O)c2ccc(NS(C)(=O)=O)cc2)C[C@H]2CN(CCc3c([nH]c4ccccc34)[C@@](C(=O)OC)(c3cc4c(cc3OC)N(C)[C@H]3[C@@](O)(C(=O)OC)[C@H](OC(C)=O)[C@]5(CC)C=CCN6CC[C@]43[C@@H]65)C2)C1 [Compound 61] | 0.3 | 0.4 | 0.07 | 0.06 | 0.26 | 0.53 | – |
| CC[C@]1(NC(=O)c2ccc(C)c(C)c2)C[C@H]2CN(CCc3c([nH]c4ccccc34)[C@@](C(=O)OC)(c3cc4c(cc3OC)N(C)[C@H]3[C@@](O)(C(=O)OC)[C@H](OC(C)=O)[C@]5(CC)C=CCN6CC[C@]43[C@@H]65)C2)C1 [Compound 28] | 4.5 | 3 | 4.5 | 3 | 2.5 | 5 | IC50 (HCT116; [1]): 4.5 nM; IC50 (HCT116; [2]): 4.5 nM; IC50 (HCT116/VM46; Table 2, read-out: IC50 HCT116/VM46): 7.6 nM; IC50 (HCT116/VM46; Table 10, read-out: IC50 (nM), HCT116/VM46): 7.6 nM; IC50 (HCT116/VM46; read-out: IC50 HCT116/VM46): 7.6 nM; % displacement (Tubulin): 67 ± 8% |
| CC(=O)O[C@H]1C(=O)[C@@]2(C)[C@H]([C@H](OC(=O)c3ccccc3)[C@]3(O)C[C@H](OC(=O)[C@H](O)[C@@H](NC(=O)c4ccccc4)c4ccccc4)C(C)=C1C3(C)C)[C@]1(OC(C)=O)CO[C@@H]1C[C@@H]2O [Taxol, reference compound] | – | – | – | – | – | – | IC50 (HCT116; Homo sapiens, HCT-116, table b183, read-out: IC50 HCT116): 4.1 nM; IC50 (HCT116/VM46; Homo sapiens, HCT-116/VM46, table b183, read-out: IC50 HCT116/VM46): > 200 nM; Measured fold resistant vs wt HCT116 (HCT116/VM46; [3]): > 50; loss in potency A549-T24 relative to wild type A549 (A549-T24): 10 fold; IC50 (A549-T24; Homo sapiens): 70 nM; Measured fold resistant vs wt A549 (A549-T24; [3]): 10; IC50 (A549; Homo sapiens, A549, read-out: IC50 A549): 7.1 nM; IC50 (A549; Homo sapiens, A549, read-out: IC50 wild type A549): 7.1 nM |
| CCC1(NC(=O)c2ccc(NC(C)=O)cc2)CC2CN(CCc3c([nH]c4ccccc34)C(C(=O)OC)(c3cc4c(cc3OC)N(C)C3C(O)(C(=O)OC)C(OC(C)=O)C5(CC)C=CCN6CCC43C65)C2)C1 (stereo not drawn) [Compound 58] | 0.8 | 1.6 | 0.07 | 0.06 | 0.13 | 0.17 | – |
| CCC1(NC(=O)c2ccc3c(c2)CCCC3)CC2CN(CCc3c([nH]c4ccccc34)C(C(=O)OC)(c3cc4c(cc3OC)N(C)C3C(O)(C(=O)OC)C(OC(C)=O)C5(CC)C=CCN6CCC43C65)C2)C1 (stereo not drawn) [Compound 121] | – | – | 4.9 | 3 | 6.5 | 7.6 | IC50 (HCT116; Table 4, read-out: IC50 HCT116): 4.9 nM; IC50 (HCT116; [1]): 4.9 nM; IC50 (HCT116; [2]): 4.9 nM; potency relative to vinblastine (more potent) (HCT116; vinblastine-sensitive cell lines): about 2 fold; IC50 (L1210; Table 4): 3.3 nM; % displacement (Tubulin): 63 ± 5%; relative tubulin binding affinity vs vinblastine (Tubulin; in words, b167): essentially indistinguishable from or perhaps slightly better than that of vinblastine |
| CC[C@]1(N)C[C@H]2CN(CCc3c([nH]c4ccccc34)[C@@](C(=O)OC)(c3cc4c(cc3OC)N(C)[C@H]3[C@@](O)(C(=O)OC)[C@H](OC(C)=O)[C@]5(CC)C=CCN6CC[C@]43[C@@H]65)C2)C1 [Compound 6, 20′-aminovinblastine] | – | – | – | – | – | – | IC50 (HCT116; table in Background, C20′ substituent X, read-out: IC50, HCT116): 600 nM; IC50 (HCT116/VM46; table in Background, C20′ substituent X, read-out: IC50, HCT116/VM46): > 10000 nM |
| CCC1(NC(=O)c2ccc(NC(=O)OC(C)(C)C)cc2)CC2CN(CCc3c([nH]c4ccccc34)C(C(=O)OC)(c3cc4c(cc3OC)N(C)C3C(O)(C(=O)OC)C(OC(C)=O)C5(CC)C=CCN6CCC43C65)C2)C1 (stereo not drawn) [Compound 60] | 0.3 | 0.3 | 0.07 | 0.06 | 0.09 | 0.19 | – |
| CC[C@]1(NC(=O)c2ccc(N(C)C)cc2)C[C@H]2CN(CCc3c([nH]c4ccccc34)[C@@](C(=O)OC)(c3cc4c(cc3OC)N(C)[C@H]3[C@@](O)(C(=O)OC)[C@H](OC(C)=O)[C@]5(CC)C=CCN6CC[C@]43[C@@H]65)C2)C1 [Compound 64] | 0.18 | 0.18 | – | – | – | – | percent (%) displacement of tubulin-bound BODIPY-vinblastine (Tubulin): 88±5% |
